Data reported in publication PMC4769596 (Biochemical pharmacology, 2014).
Read-outs that look alike come from different tables or passages of the source.

What was measured:
[1] = target: μOR (spinal cord membranes from WT mice) (Mus musculus, UniProt P42866); experiment: [35S]GTPγS binding, spinal cord membranes from WT mice; assay type: biochemical; conditions: spinal cord membranes (10 μg); for Emax (% basal), [35S]GTPγS binding: basal = 100%
[2] = target: μOR (spinal cord membranes from δOR−/− mice) (Mus musculus, UniProt P42866); experiment: [35S]GTPγS binding, spinal cord membranes from δOR−/− mice; assay type: biochemical; conditions: spinal cord membranes (10 μg), basal = 100%
μOR (spinal cord membranes from δOR−/− mice), sequence (P42866 whole entry): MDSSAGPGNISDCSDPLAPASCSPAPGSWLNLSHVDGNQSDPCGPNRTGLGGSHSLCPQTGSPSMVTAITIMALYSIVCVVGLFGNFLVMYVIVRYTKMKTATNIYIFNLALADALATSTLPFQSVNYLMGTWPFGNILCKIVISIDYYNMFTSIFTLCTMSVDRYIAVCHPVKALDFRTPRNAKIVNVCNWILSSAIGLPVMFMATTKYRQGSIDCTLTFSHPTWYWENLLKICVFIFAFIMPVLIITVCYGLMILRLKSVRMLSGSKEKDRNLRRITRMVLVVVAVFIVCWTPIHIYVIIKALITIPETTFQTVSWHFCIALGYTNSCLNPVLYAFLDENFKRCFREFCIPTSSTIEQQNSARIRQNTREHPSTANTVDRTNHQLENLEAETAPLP

[3] = system: spinal cord membranes from μOR−/− mice; experiment: [35S]GTPγS binding, spinal cord membranes from μOR−/− mice; assay type: biochemical
[4] = system: antinociception; conditions: cited from earlier work
[5] = target: μOR (membranes from the ileum of WT mice) (Mus musculus, UniProt P42866); experiment: [35S]GTPγS binding, ileal membranes from WT mice; assay type: biochemical; conditions: 10 μM (Fig. 1G)
μOR (membranes from the ileum of WT mice), sequence (P42866 whole entry): as above

[6] = target: μOR homomers (μ^βgalOR cells) (Homo sapiens, UniProt P35372); assay type: cell-based
μOR homomers (μ^βgalOR cells), sequence (P35372 whole entry): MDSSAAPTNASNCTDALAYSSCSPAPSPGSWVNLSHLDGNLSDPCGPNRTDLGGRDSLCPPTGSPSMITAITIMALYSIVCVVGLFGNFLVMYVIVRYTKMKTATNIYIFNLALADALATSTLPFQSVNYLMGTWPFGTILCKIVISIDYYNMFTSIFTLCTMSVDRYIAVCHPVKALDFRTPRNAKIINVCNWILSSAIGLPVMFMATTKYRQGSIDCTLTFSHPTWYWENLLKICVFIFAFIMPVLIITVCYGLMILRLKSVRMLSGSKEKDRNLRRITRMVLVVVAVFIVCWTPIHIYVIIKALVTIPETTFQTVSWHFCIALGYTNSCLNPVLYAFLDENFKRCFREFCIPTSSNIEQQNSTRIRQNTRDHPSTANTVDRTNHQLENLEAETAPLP

[7] = system: castor oil-induced diarrhea in WT mice; assay type: in vivo; conditions: for effect on body weight change in presence of naltrexone: WT and δOR−/− mice; for reduction in castor oil-induced diarrhea after naltrexone pre-treatment: 10 mg/kg p.o., naltrexone 10 mg/kg i.p. 20 min before; for castor oil-induced diarrhea (diarrhea score): 5 or 10 mg/kg p.o. 15 min before castor oil; for castor oil-induced diarrhea (diarrhea score) / castor oil induced fecal output (fecal weight): 4 h; for castor oil induced fecal output (fecal weight) / castor oil-induced decrease in body weight: 5 or 10 mg/kg p.o.
[8] = system: castor oil-induced diarrhea in δOR−/− mice; experiment: Castor oil-induced diarrhea in δOR−/− mice; assay type: in vivo; conditions: for castor oil induced fecal output (fecal weight): 4 h; for castor oil-induced decrease in body weight: 5 or 10 mg/kg p.o., 4 h after castor oil
[9] = target: μOR-δOR heteromers (μ^βgalOR-δOR cells) (Homo sapiens, UniProt P35372+P41143)
μOR-δOR heteromers (μ^βgalOR-δOR cells), sequence (P35372 whole entry): as above
μOR-δOR heteromers (μ^βgalOR-δOR cells), sequence (P41143 whole entry): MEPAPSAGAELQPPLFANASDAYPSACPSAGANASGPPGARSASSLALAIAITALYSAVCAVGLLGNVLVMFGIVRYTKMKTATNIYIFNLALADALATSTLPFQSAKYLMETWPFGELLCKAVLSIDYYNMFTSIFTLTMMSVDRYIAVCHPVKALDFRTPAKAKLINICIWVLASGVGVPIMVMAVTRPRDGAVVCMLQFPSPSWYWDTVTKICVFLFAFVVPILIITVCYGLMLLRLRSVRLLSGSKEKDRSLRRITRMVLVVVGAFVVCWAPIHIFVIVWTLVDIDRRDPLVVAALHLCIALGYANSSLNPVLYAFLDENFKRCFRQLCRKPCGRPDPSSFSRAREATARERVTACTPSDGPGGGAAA

[10] = system: novel-environment stressed mice; conditions: doses of 5–25 mg/kg; cited from earlier work
[11] = Chronic treatment, body weight; conditions: 10 mg/kg/day p.o. for 5 days

μOR (spinal cord membranes from WT mice), sequence (P42866 whole entry): as the sequence (P42866 whole entry) above

Compound | Emax (% basal), [35S]GTPγS binding [1] | Emax (% basal), [35S]GTPγS binding [2] | increase of [35S]GTPγS binding [3] | effect on body weight change in presence of naltrexone ([7]; naltrexone 10 mg/kg i.p.) | reduction in castor oil-induced diarrhea after naltrexone pre-treatment ([7]; WT mice) | castor oil-induced diarrhea (diarrhea score) ([7]; WT mice) | castor oil induced fecal output (fecal weight) ([7]; WT mice) | castor oil-induced decrease in body weight ([7]; WT mice, 4 h after castor oil) | castor oil-induced diarrhea (diarrhea score) ([8]; 5 mg/kg p.o.) | castor oil induced fecal output (fecal weight) ([8]; 5 mg/kg p.o.) | castor oil-induced diarrhea (diarrhea score) ([8]; 10 mg/kg p.o.) | castor oil-induced decrease in body weight [8] | changes in body weight [11] | further results
C[C@@H](NC(=O)[C@@H](N)Cc1ccc(O)cc1)C(=O)NCC(=O)N(C)[C@@H](Cc1ccccc1)C(=O)NCCO [DAMGO, [D-Ala^2, N-MePhe^4, Gly-ol]-enkephalin] | ~ 143 % basal | ~ 147 % basal | did not increase |  |  |  |  |  |  |  |  |  |  | 
CN1CC[C@]23c4c5ccc(O)c4O[C@H]2[C@H](NC(=O)COCC(=O)NCCCCCCCNC(=O)COCC(=O)Nc2cccc4c6c([nH]c24)[C@@H]2Oc4c(O)ccc7c4[C@@]24CCN(CC2CC2)[C@@H](C7)[C@]4(O)C6)CC[C@@]3(O)[C@H]1C5 [MDAN21] |  |  |  |  |  |  |  |  |  |  |  |  |  | antinociceptive potency compared to morphine [4]: 100 times
COc1ccc(CN(C(=O)[C@@H](N)Cc2c(C)cc(C(N)=O)cc2C)[C@@H](C)c2ncc(-c3ccccc3)[nH]2)cc1C(=O)O [eluxadoline] | ~ 120 % basal | ~ 143 % basal | did not increase | partly blocked | not observed | reduced | significantly reduces | blocked | did not significantly reduce | significantly decreased | partially eliminate | blocked | did not lead to significant changes | EC50 ([1]; EC50, [35S]GTPγS binding): ~7 nM; increase in [35S]GTPγS binding compared to DAMGO or loperamide [5]: higher increase; block of β-arrestin recruitment by μOR-selective antibodies [6]: ~ 40%; fecal output versus vehicle control (constipation) ([7]; WT mice, 5 mg/kg, 4 h after castor oil): slightly reduced fecal output to below the vehicle control; effect on fecal output with coadministration of naltrexone ([7]; WT mice, naltrexone 10 mg/kg i.p.): blocked; effect on castor oil-induced body weight change compared to WT mice ([8]; 5 mg/kg): less effective; block of β-arrestin recruitment by μOR-selective antibodies [9]: ~ 17%; block of β-arrestin recruitment by μOR-δOR heteromer-selective antibodies [9]: 27%; constipation [10]: did not cause constipation
CN(C)C(=O)C(CCN1CCC(O)(c2ccc(Cl)cc2)CC1)(c1ccccc1)c1ccccc1 [loperamide] |  |  | did not increase | partly blocked | not observed | reduced | significantly reduces | blocked | did not significantly reduce | significantly decreased | completely eliminate | blocked | did not lead to significant changes | effect on fecal output with coadministration of naltrexone ([7]; mouse, in vivo): blocked
